According to PubChem BioAssay AID192 (DTP/NCI, 2004):
Toxic doses and inconclusive results are not listed.

Tested on: BDF1 mice, B16 melanoma ip, median survival T/C
Test: NCI In Vivo Anticancer Drug Screen. Data for tumor model B16 Melanoma (intraperitoneal) in B6D2F1 (BDF1) mice
Details: endpoint: median survival time, higher = longer survival
Procedure, shortened: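 Survival or tumor size is measured after treatment of tumor-bearing mice and normalised to the vehicle-treated control group.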

Question: Cc1nc(N)nc(N)c1-c1ccc(Cl)c(Cl)c1 was tested. Which T/C (dose: 0.25 mg/kg/injection, schedule: Q01DX009 (ip), vehicle: saline with Tween-80) did it give?
Answer: 104 % of control

Question: What about the T/C (dose: 0.5 mg/kg/injection, schedule: Q01DX009 (ip), vehicle: saline with Tween-80) of the same compound?
Answer: 102 % of control

Question: What about the T/C (dose: 0.62 mg/kg/injection, schedule: Q01DX009 (ip), vehicle: saline) of the same compound?
Answer: 102 % of control

Question: And the T/C (dose: 0.75 mg/kg/injection, schedule: Q01DX009 (ip), vehicle: saline with Tween-80)?
Answer: 115 % of control

Question: What about the T/C (dose: 1.0 mg/kg/injection, schedule: Q01DX009 (ip), vehicle: saline with Tween-80) of the same compound?
Answer: 100 % of control

Question: What about the T/C (dose: 1.0 mg/kg/injection, schedule: Q02DX009 (ip), vehicle: Klucel (hydroxypropylcellulose) (HPC)) of the same compound?
Answer: 98 % of control

Question: And the T/C (dose: 1.0 mg/kg/injection, schedule: Q02DX009 (ip), vehicle: saline with Tween-80)?
Answer: 113 % of control

Question: And the T/C (dose: 1.25 mg/kg/injection, schedule: Q01DX009 (ip), vehicle: saline)?
Answer: 107 % of control

Question: What about the T/C (dose: 1.5 mg/kg/injection, schedule: Q04DX003 (ip), vehicle: saline with Tween-80) of the same compound?
Answer: 90 % of control

Question: And the T/C (dose: 2.0 mg/kg/injection, schedule: Q01DX009 (ip), vehicle: saline with Tween-80)?
Answer: 120 % of control

Question: And the T/C (dose: 2.0 mg/kg/injection, schedule: Q02DX009 (ip), vehicle: Klucel (hydroxypropylcellulose) (HPC))?
Answer: 100 % of control

Question: And the T/C (dose: 2.0 mg/kg/injection, schedule: Q02DX009 (ip), vehicle: saline with Tween-80)?
Answer: 119 % of control

Question: And the T/C (dose: 3.0 mg/kg/injection, schedule: Q01DX009 (ip), vehicle: saline with Tween-80)?
Answer: 112 % of control

Question: What about the T/C (dose: 3.0 mg/kg/injection, schedule: Q04DX003 (ip), vehicle: saline with Tween-80) of the same compound?
Answer: 90 % of control

Question: What about the T/C (dose: 4.0 mg/kg/injection, schedule: Q02DX009 (ip), vehicle: Klucel (hydroxypropylcellulose) (HPC)) of the same compound?
Answer: 100 % of control

Question: And the T/C (dose: 4.0 mg/kg/injection, schedule: Q04DX003 (ip), vehicle: saline with Tween-80)?
Answer: 96 % of control

Question: And the T/C (dose: 6.0 mg/kg/injection, schedule: Q04DX003 (ip), vehicle: saline with Tween-80)?
Answer: 102 % of control

Question: And the T/C (dose: 8.0 mg/kg/injection, schedule: Q02DX009 (ip), vehicle: Klucel (hydroxypropylcellulose) (HPC))?
Answer: 121 % of control

Question: What about the T/C (dose: 8.0 mg/kg/injection, schedule: Q04DX003 (ip), vehicle: saline with Tween-80) of the same compound?
Answer: 97 % of control

Question: And the T/C (dose: 10.0 mg/kg/injection, schedule: Q04DX003 (ip), vehicle: saline with Tween-80)?
Answer: 93 % of control

Question: COc1ccc2c(c1)c(C#N)cc[n+]2C was tested. Which T/C (dose: 3.13 mg/kg/injection, schedule: Q01DX009 (ip), vehicle: saline) did it give?
Answer: 102 % of control

Question: What about the T/C (dose: 6.25 mg/kg/injection, schedule: Q01DX009 (ip), vehicle: saline) of the same compound?
Answer: 100 % of control

Question: Which T/C (dose: 100.0 mg/kg/injection, schedule: Q01DX009 (ip), vehicle: saline with Tween-80) does the source give for Cc1ccccc1OS(=O)(=O)c1cccc([N+](=O)[O-])c1 here?
Answer: 113 % of control

Question: And the T/C (dose: 200.0 mg/kg/injection, schedule: Q01DX009 (ip), vehicle: saline with Tween-80)?
Answer: 113 % of control

Question: What about the T/C (dose: 400.0 mg/kg/injection, schedule: Q01DX009 (ip), vehicle: saline with Tween-80) of the same compound?
Answer: 107 % of control

Question: With CC1(CO)C(O)CCC2(C)C1CCC1CC3CC12CCC3(O)CO (configuration not stated) as the compound, how does the T/C (dose: 0.78 mg/kg/injection, schedule: Q03HX020 (oral), vehicle: Klucel (hydroxypropylcellulose) (HPC)) read?
Answer: 97 % of control

Question: What about the T/C (dose: 1.56 mg/kg/injection, schedule: Q03HX020 (oral), vehicle: Klucel (hydroxypropylcellulose) (HPC)) of the same compound?
Answer: 107 % of control

Question: And the T/C (dose: 3.12 mg/kg/injection, schedule: Q03HX020 (ip), vehicle: Klucel (hydroxypropylcellulose) (HPC))?
Answer: 89 % of control

Question: And the T/C (dose: 3.12 mg/kg/injection, schedule: Q03HX020 (oral), vehicle: Klucel (hydroxypropylcellulose) (HPC))?
Answer: 99 % of control

Question: And the T/C (dose: 6.25 mg/kg/injection, schedule: Q03HX020 (ip), vehicle: Klucel (hydroxypropylcellulose) (HPC))?
Answer: 108 % of control

Question: What about the T/C (dose: 6.25 mg/kg/injection, schedule: Q03HX020 (oral), vehicle: Klucel (hydroxypropylcellulose) (HPC)) of the same compound?
Answer: 102 % of control

Question: What about the T/C (dose: 12.5 mg/kg/injection, schedule: Q03HX020 (ip), vehicle: Klucel (hydroxypropylcellulose) (HPC)) of the same compound?
Answer: 118 % of control

Question: What about the T/C (dose: 12.5 mg/kg/injection, schedule: Q03HX020 (oral), vehicle: Klucel (hydroxypropylcellulose) (HPC)) of the same compound?
Answer: 99 % of control

Question: And the T/C (dose: 25.0 mg/kg/injection, schedule: Q03HX020 (ip), vehicle: Klucel (hydroxypropylcellulose) (HPC))?
Answer: 115 % of control

Question: What about the T/C (dose: 25.0 mg/kg/injection, schedule: Q03HX020 (oral), vehicle: Klucel (hydroxypropylcellulose) (HPC)) of the same compound?
Answer: 98 % of control

Question: What about the T/C (dose: 25.0 mg/kg/injection, schedule: Q04DX003 (ip), vehicle: Klucel (hydroxypropylcellulose) (HPC)) of the same compound?
Answer: 100 % of control

Question: And the T/C (dose: 50.0 mg/kg/injection, schedule: Q03HX020 (ip), vehicle: Klucel (hydroxypropylcellulose) (HPC))?
Answer: 176 % of control

Question: What about the T/C (dose: 50.0 mg/kg/injection, schedule: Q03HX020 (oral), vehicle: Klucel (hydroxypropylcellulose) (HPC)) of the same compound?
Answer: 104 % of control

Question: What about the T/C (dose: 50.0 mg/kg/injection, schedule: Q04DX003 (ip), vehicle: Klucel (hydroxypropylcellulose) (HPC)) of the same compound?
Answer: 105 % of control

Question: And the T/C (dose: 100.0 mg/kg/injection, schedule: Q03HX020 (oral), vehicle: Klucel (hydroxypropylcellulose) (HPC))?
Answer: 117 % of control

Question: What about the T/C (dose: 100.0 mg/kg/injection, schedule: Q04DX003 (ip), vehicle: Klucel (hydroxypropylcellulose) (HPC)) of the same compound?
Answer: 117 % of control

Question: What about the T/C (dose: 400.0 mg/kg/injection, schedule: Q04DX003 (ip), vehicle: Klucel (hydroxypropylcellulose) (HPC)) of the same compound?
Answer: 163 % of control
